The source of these data is BindingDB's records for patent US20240262826 (Blueprint Medicines, 2024).

The structures appear in SMILES notation.

What is called IC50 is the concentration that inhibits the measured activity by half. High values mean a need for much substance, low ones inhibition by little substance.

Chain of Mast/stem cell growth factor receptor Kit (P10721 whole entry): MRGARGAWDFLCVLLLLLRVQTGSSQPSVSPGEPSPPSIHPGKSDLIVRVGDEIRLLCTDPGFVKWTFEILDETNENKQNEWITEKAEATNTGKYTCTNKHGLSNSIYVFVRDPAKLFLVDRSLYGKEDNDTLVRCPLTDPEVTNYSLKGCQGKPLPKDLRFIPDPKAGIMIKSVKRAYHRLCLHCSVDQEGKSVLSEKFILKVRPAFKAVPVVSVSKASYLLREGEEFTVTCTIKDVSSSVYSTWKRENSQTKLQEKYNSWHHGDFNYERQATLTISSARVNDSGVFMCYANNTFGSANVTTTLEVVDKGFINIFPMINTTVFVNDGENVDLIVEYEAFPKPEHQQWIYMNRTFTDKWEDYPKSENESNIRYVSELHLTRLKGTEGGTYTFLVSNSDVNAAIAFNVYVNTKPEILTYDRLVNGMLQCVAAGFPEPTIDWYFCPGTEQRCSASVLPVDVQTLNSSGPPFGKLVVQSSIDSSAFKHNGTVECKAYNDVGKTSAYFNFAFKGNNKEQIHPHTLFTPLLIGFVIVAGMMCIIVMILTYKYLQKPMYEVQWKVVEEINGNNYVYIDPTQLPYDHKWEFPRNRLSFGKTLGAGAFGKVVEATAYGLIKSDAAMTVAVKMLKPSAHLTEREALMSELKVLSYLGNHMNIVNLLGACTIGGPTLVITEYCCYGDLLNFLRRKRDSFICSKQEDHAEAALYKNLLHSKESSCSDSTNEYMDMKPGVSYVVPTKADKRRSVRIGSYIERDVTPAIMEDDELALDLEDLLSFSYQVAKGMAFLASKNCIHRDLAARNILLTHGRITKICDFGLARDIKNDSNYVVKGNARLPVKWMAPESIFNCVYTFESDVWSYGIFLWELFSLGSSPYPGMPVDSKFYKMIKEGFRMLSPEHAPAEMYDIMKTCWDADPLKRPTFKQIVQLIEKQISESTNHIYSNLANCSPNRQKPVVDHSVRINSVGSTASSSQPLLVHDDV

The assay addresses Mast/stem cell growth factor receptor Kit (Homo sapiens, UniProt P10721). Nature of the assay: Biochemical Phospho c-Kit Inhibition Assay. The procedure: For the PathScan phospho c-kit (Tyr719) sandwich ELISA: M-07e cells were resuspended at 2×10^6 cells/mL in phenol red free, serum-free, GM-CSF-free Iscove's Modified Dulbecco's Medium (IMDM) media with 1% Penicillin-Streptomycin. The cells were then dispensed into the wells of a U-bottom, 96-well plate at 50 uL per well using a multichannel pipet. The plate was allowed to incubate at 37° C. in a humidified tissue culture incubator for 4 hours.After 4 hours of incubation, each well was dosed with 6.25 uL of test compound at a final DMSO concentration of 0.25% for 60 min at 37° C. to generate an 8-point dose concentration series of test compounds in duplicate. Cells were then incubated for 1 hour at 37° C. in a humidified tissue culture incubator. Next, human SCF at 500 ng/mL was added to the appropriate wells at 6.25 uL/well and the plate was shaken at 450 rpm at room temperature for 10 minutes. AlphaLISA 5× Lysis Buffer supplemented with 1× protease and phosphatase inhibitor was then added at 16 uL/well. The plate was sealed with an adherent cover and shaken at 4° C. at 600 rpm for 30 minutes. After this period of lysis, the plate was stored at −80° C. When the 96-well plate containing M07e lysates was ready to be processed, the plate was brought to room temperature and 40 μl from each well was transferred to the wells of a PathScan Phospho-c-Kit (Tyr719) Sandwich ELISA plate (CST, Catalog #7298). The ELISA plate was sealed with an adherent cover and incubated for 2 hours at 37° C. Next, the wells were washed 4 times with the provided 1× Wash Buffer, and 100 uL/well of reconstituted Detection Antibody was added to each well, the plate sealed with an adherent cover, and incubated at 37° C. for 1 hour. The wash procedure was repeated and 100 uL/well of reconstituted HRP-Linked secondary antibody was added. The plate was sealed with an adherent cover and incubated at 37° C. for 1 hour. The wash procedure was repeated and 100 uL/well of TMB Substrate was added. The plate was incubated for 10 minutes at room temperature or until the positive reaction elicited a blue color in the appropriate wells. 100 uL/well of STOP solution was added and shaken gently for a few seconds a microplate reader or conventional spectrophotometer e.g., a Perkin Elmer Envision multimode plate reader, part #2105-0010.
On to `Cc1ccc(-c2nnn(C3CC(F)(F)C3)n2)cc1NC(=O)c1cnn2ccc(N3CC[C@H]3CO)cc12` [US20240262826, Compound 104], for which 3.5 nM corresponded to half-maximal inhibition (IC50). In other words, the single-digit nanomolar range.
For `O=C(Nc1cc(-c2nnn(C3CC(F)(F)C3)n2)c(Cl)cc1Cl)c1cnn2ccc(N3CCOCC3)cc12` [US20240262826, Compound 167] the value was 7.3 nM; for `Cc1ccc(-c2nnn(CCOCC(F)(F)F)n2)cc1NC(=O)c1cnn2ccc(-c3cn[nH]c3)cc12` [US20240262826, Compound 197], 1.4 nM.
With `Cc1cnn(-c2ccc(C)c(NC(=O)c3cnn4ccc(-c5cnn(C[C@H]6CNCCO6)c5)cc34)c2)n1` [US20240262826, Compound 205], half-maximal inhibition (IC50) required 8.2 nM.
To `COCCOC[C@@H](O)Cn1cc(-c2ccn3ncc(C(=O)Nc4cc(-c5nnn(C6CC6)n5)c(C)cc4Cl)c3c2)cn1` [US20240262826, Compound 261] belongs 1.7 nM.
